Activity calls are given as the source filed them. No rule for the calls is given here.

The subject of the data set is rodent carcinogenicity bioassays, tumor incidence. As to the kind of experiment: CCRIS carcinogenicity studies. From the text:
The CCRIS database contains chemical records with carcinogenicity, mutagenicity, tumor promotion, and tumor inhibition test results. It was developed by the National Cancer Institute (NCI). Data are derived from studies cited in primary journals, current awareness tools, NCI reports, and other sources. Test results have been reviewed by experts in carcinogenesis and mutagenesis.
CCRIS provides historical information from the years 1985 - 2011. It is no longer updated.
This is an archive assay for CCRIS carcinogenicity studies.

On to `CC(C)C=O`, for which the carcinogen call (Species: MOUSE, Strain/Sex: B6C3F1/FEMALE, Route: INHALATION, Dose: 0, 500, 1000, 2000 PPM 6 HR/D 5 D/WK FOR 105 WK (STUDY DURATION: 105 WK), Dose: 0, 500, 1000, 2000 PPM 6 HR/D 5 D/WK FOR 105 WK (STUDY DURATION: 105 WK)) is “inactive; negative”; the carcinogen call (Species: MOUSE, Strain/Sex: B6C3F1/MALE, Route: INHALATION, Dose: 0, 500, 1000, 2000 PPM 6 HR/D 5 D/WK FOR 105 WK (STUDY DURATION: 105 WK), Dose: 0, 500, 1000, 2000 PPM 6 HR/D 5 D/WK FOR 105 WK (STUDY DURATION: 105 WK)) is “inactive; negative”; the carcinogen call (Species: RAT, Strain/Sex: F344/FEMALE, Route: INHALATION, Dose: 0, 500, 1000, 2000 PPM 6 HR/D 5 D/WK FOR 105 WK (STUDY DURATION: 105 WK), Dose: 0, 500, 1000, 2000 PPM 6 HR/D 5 D/WK FOR 105 WK (STUDY DURATION: 105 WK)) was “inactive; negative”; the carcinogen call (Species: RAT, Strain/Sex: F344/MALE, Route: INHALATION, Dose: 0, 500, 1000, 2000 PPM 6 HR/D 5 D/WK FOR 105 WK (STUDY DURATION: 105 WK), Dose: 0, 500, 1000, 2000 PPM 6 HR/D 5 D/WK FOR 105 WK (STUDY DURATION: 105 WK)) was “inactive; negative”.
Consider `O=C(O)c1ccccc1O`, for which the carcinogen call was “inactive; negative. when synthetic solar light (ssl) at 0.3 and 0.6 the minimal erythema d” (Species: Mouse, Strain/Sex: SKH-1/Female (18/Group), Route: Dermal, Dose: 0, 2, 4% administered as topical cream (pH 4) , 5 d/wk, 40 wk, animals held an additional 12 wk for study duration of 1, Tumor Site: Type of Lesion: Skin: Carcinoma in situ, squamous cell carcinoma, basal cell carcinoma); “inactive; negative. when synthetic solar light (ssl) at 0.3 and 0.6 the minimal erythema d” (Species: Mouse, Strain/Sex: SKH-1/Male (18/Group), Route: Dermal, Dose: 0, 2, 4% administered as topical cream (pH 4) , 5 d/wk, 40 wk, animals held an additional 12 wk for study duration of 1, Tumor Site: Type of Lesion: Skin: Carcinoma in situ, squamous cell carcinoma, basal cell carcinoma).
As to `CC(=O)Nc1ccc(/C=C/c2ccccc2)cc1`, the carcinogen call (Species: RAT, Strain/Sex: HOLTZMAN/MALE, Route: ORAL, Dose: 0, 0.0046% IN DIET FOR WK 0-13 (STUDY DURATION: 40 WK), Tumor Site: Type of Lesion: EAR DUCT GLAND: CARCINOMA) is “active; positive”.
In the case of `O=C1C=CC(=O)C(c2ccccc2)=C1`, the carcinogen call is, setting by setting: (Species: MOUSE, Strain/Sex: CD-1/FEMALE, Route: DERMAL, Dose: 0, 1 MG IN DMSO 5/D WK FOR 40 WK (STUDY DURATION: 40 WK)) “inactive; negative”; (Species: RAT, Strain/Sex: F344/FEMALE, Route: INTRAVESICULAR, Dose: 0, 1% IN 0.2 ML SALINE 2/WK FOR 5 WK (STUDY DURATION: 36 WK)) “inactive; negative”.
Take `CC1=CC(C)(C)N(N=O)c2ccccc21`: for the setting “Species: RAT, Strain/Sex: CB/MALE, Route: INTRAPERITONEAL, Dose: 0, 25 MG IN POLYETHYLENE GLYCOL 400 1/WK FOR 6 MO FOR A TOTAL DOSE OF 0, 650 MG (STUDY DURATION: 24 MO), Dose: 0, 25 MG IN POLYETHYLENE GLYCOL 400 1/WK FOR 6 MO FOR A TOTAL DOSE OF 0, 650 MG (STUDY DURATION: 24 MO), Tumor Site: Type of Lesion: PERITONEUM: SARCOMA”, the carcinogen call was “active; positive”.
Take `OCCN(CCO)C(=S)S`: the carcinogen call (Species: MOUSE, Strain/Sex: B6AKF1/MALE, Route: GAVAGE/ORAL, Dose: 464 MG/KG FROM D 7-28 OF LIFE THEN 1112 MG/KG IN DIET, Tumor Site: Type of Lesion: LIVER: HEPATOMA) is “active; positive”; the carcinogen call (Species: MOUSE, Strain/Sex: B6C3F1/MALE,FEMALE, Route: GAVAGE/ORAL, Dose: 464 MG/KG FROM D 7-28 OF LIFE THEN 1112 MG/KG IN DIET, Tumor Site: Type of Lesion: LIVER: HEPATOMA) was “active; positive”; the carcinogen call (Species: RAT, Strain/Sex: STRAIN-CD/MALE,FEMALE, Route: ORAL, Dose: 500, 1000 PPM IN DIET FOR 78 WK) was “inactive; negative”.
For `CNC(=O)ON=CC(C)(C)SC`, the carcinogen call (Species: MOUSE, Strain/Sex: B6C3F1/FEMALE, Route: ORAL, Dose: 0, 2, 6 PPM IN DIET, Dose: 0, 2, 6 PPM IN DIET) was “inactive; negative”; the carcinogen call (Species: MOUSE, Strain/Sex: B6C3F1/MALE, Route: ORAL, Dose: 0, 2, 6 PPM IN DIET, Dose: 0, 2, 6 PPM IN DIET) was “inactive; negative”; the carcinogen call (Species: RAT, Strain/Sex: F344/FEMALE, Route: ORAL, Dose: 0, 2, 6 PPM IN DIET, Dose: 0, 2, 6 PPM IN DIET) was “inactive; negative”; the carcinogen call (Species: RAT, Strain/Sex: F344/MALE, Route: ORAL, Dose: 0, 2, 6 PPM IN DIET, Dose: 0, 2, 6 PPM IN DIET) was “inactive; negative”.
`CNC(=O)Oc1cc(C)c(N(C)C)c(C)c1`: the carcinogen call reads like this: (Species: MOUSE, Strain/Sex: B6C3F1/FEMALE, Route: ORAL, Dose: 0, 68, 135 PPM IN DIET, TWA, Dose: 0, 68, 135 PPM IN DIET, TWA) “inactive; negative”; (Species: MOUSE, Strain/Sex: B6C3F1/MALE, Route: ORAL, Dose: 0, 327, 654 PPM IN DIET, TWA, Dose: 0, 327, 654 PPM IN DIET, TWA) “inactive; negative”; (Species: RAT, Strain/Sex: OSBORNE-MENDEL/FEMALE, Route: ORAL, Dose: 0, 339, 678 PPM IN DIET, TWA, Dose: 0, 339, 678 PPM IN DIET, TWA) “inactive; negative”; (Species: RAT, Strain/Sex: OSBORNE-MENDEL/MALE, Route: ORAL, Dose: 0, 209, 418 PPM IN DIET, TWA, Dose: 0, 209, 418 PPM IN DIET, TWA) “inactive; negative”.
Take `CN(C)CCN(Cc1ccccc1)c1ccccn1`: the carcinogen call is, setting by setting: (Species: RAT, Strain/Sex: SPRAGUE-DAWLEY/FEMALE, Route: ORAL, Dose: 0, 500, 1000 PPM IN DRINKING WATER 5D/WK FOR LIFE (STUDY DURATION: 493-754 D), Dose: 0, 500, 1000 PPM IN DRINKING WATER 5D/WK FOR LIFE (STUDY DURATION: 493-754 D)) “inactive; negative”; (Species: RAT, Strain/Sex: SPRAGUE-DAWLEY/MALE, Route: ORAL, Dose: 0, 500, 1000 PPM IN DRINKING WATER 5D/WK FOR LIFE (STUDY DURATION: 529-600 D), Dose: 0, 500, 1000 PPM IN DRINKING WATER 5D/WK FOR LIFE (STUDY DURATION: 529-600 D)) “inactive; negative”.
